Test results as given in patent publication US10857110B2, “Antibacterial compounds” (CONSEJO NACIONAL DE INVESTIGACIONES CIENTÍFICAS Y TÉCNICAS …, priority 2016, dated 2020).
≈ marks a conversion by molar mass, not a printed value. Like-named read-outs stand apart in the source and are kept apart here.

Assays:
[1] = test system: Burkholderia cenocepacia (CBC 033); test: MIC/MBC antibiotic sensitivity (CLSI); format: cell-based; settings: for MBC: read-out: MBC
How it was run: (§1)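 Clinical Burkholderia isolates from cystic fibrosis sputum, picked for resistance to most clinical antimicrobials, were tested with the S. aureus reference strain. Minimum inhibitory and minimum bactericidal concentrations were then determined quantitatively per CLSI.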

[2] = test system: Burkholderia cenocepacia (CBC 036); test: MIC/MBC antibiotic sensitivity (CLSI); format: cell-based; settings: for MBC: read-out: MBC
How it was run: as §1

[3] = test system: Burkholderia multivorans (CBC 016); test: MIC/MBC antibiotic sensitivity (CLSI); format: cell-based; settings: for MBC: read-out: MBC
How it was run: as §1

[4] = test system: Pseudomonas aeruginosa (PAO1); test: MIC/MBC antibiotic sensitivity (CLSI); format: cell-based; settings: Pseudomonas aeruginosa, P. aeruginosa (PAO1); for MBC: read-out: MBC; for MIC: read-out: MIC
How it was run: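 Read-outs were MIC and MBC, both obtained by quantitative methods applied according to Clinical and Laboratory Standards Institute criteria. Test organisms included highly resistant Burkholderia isolates from cystic fibrosis patients' sputum alongside a Gram-positive reference strain.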

[5] = test system: B. cenacepacia (FQC2524); test: MIC/MBC antibiotic sensitivity (CLSI); format: cell-based, B. cenocepacia; settings: Burkholderia cenocepacia
Procedure: The new compounds of the invention were synthesized following the general method of preparation (Tetrahedron, 2001, 57, 1671-1675), from the reaction between an intermediary compound of the acyl thiourea and HgCl2 in presence of trimethylamine. The products were adequately characterized regarding its chemistry. The antibacterial activity of the new compounds was assayed against two Gram-positive reference strains: Staphylococcus aureus (ATCC6538) and Bacillus cereus (ATCC10876), a fermenting Gram-negative strain: Escherichia coli (ATCC25922), and 26 non-fermenting Gram-negative isolates, including 3 reference strains: Pseudomonas aeruginosa (PAO1), Bordetella bronchiseptica (9.73H+), and Inquilinus limosus (DSM16000), and 23 isolates recovered from patients suffering from cystic fibrosis, including one Achromobacter xylosoxidans isolate, and 22 isolates belonging to the Burkholderia cepacia complex. The later were selected because they presented resistance to a high number of antimicrobial compounds, among a panel of 125 clinical isolates previously analyzed for its resistance against 17 antimicrobial compounds (1,2). The antibiotic sensitivity studies were performed by applying two quantitative methods which allow to determine the minimum inhibitory concentration (MIC) and the minimum bactericidal concentration (MBC).
The compounds obtained in Examples 1 and 2 were assayed against 23 isolates recovered from the sputum of patients suffering from cystic fibrosis being treated at the Sor Maria Ludovica Children Hospital (La Plata, Buenos Aires, Argentina). Nineteen of these isolates were selected for being highly resistant to most of the antimicrobial agents of clinical use from a panel of 125 isolates previously characterized in Martina et al. (1). Reference strains were also included: Gram (+) bacteria: B. cereus and S. aureus, fermenting Gram (−) bacteria: E. coli, and non-fermenting Gram (−) bacteria: Inquilinus limosus (DSM16000), B. bronchiseptica, and Pseudomonas aeruginosa (PAO1). The antibiotic sensitivity studies were performed applying two quantitative methods which allow to determine the minimum inhibitory concentration (MIC) and the minimum bactericidal concentration (MBC) according to the criteria established by the Clinical and Laboratory Standards Institute (CLSI) (4). For comparative purposes, three antibiotics commonly used in the treatment of pulmonary infections in cystic fibrosis patients were included in the study: tobramycin, ceftazidime and meropenem.

[6] = Cytotoxicity assay, Trypan blue vital staining; format: cell-based, human; settings: human, THP-I monocyte cells; THP-I cells, Trypan Blue; highest drug concentration at which 50% of cells are viable compared with control
Procedure: (§2) For example, the MIC values for E. coli of the guanidine derivatives disclosed in patent application WO 2004073709 A1 are higher than 1 μg/ml. The guanidine derivatives disclosed by Hensler and colleagues (Hensler, M. E.; Bernstein, G.; Nizet, V.; Nefzi, A., Bioorganic & Medicinal Chemistry Letters 2006, 16, 5073-5079) have MIC values higher than 2.5 μg/ml against E. coli. […] In vitro cytotoxicity assays were performed using the human monocyte cell line THP-I and vital staining with Trypan Blue (3). The IC50 value was defined as the higher drug concentration at which 50% of cells are viable compared with the control. […] The Selectivity Index (SI), defined as the ratio between the IC50 and the MIC for each compound, was calculated. Compound H-BDF has an SI>10, which makes it a good antimicrobial candidate according to the criteria set up by Orme (5).
(§3) For assaying the cytotoxicity of the compounds obtained in Examples 1 and 2, cell viability by vital coloration exclusion with Trypan blue (3). The studies were performed using the monocyte cell line THP-I. The IC50 value was defined as the highest drug concentration at which 50% of the cells are viable as compared with the control.

[7] = test system: human monocyte cell line THP-I; test: Cytotoxicity assay, Trypan blue vital staining; format: cell-based; settings: ratio IC50 / MIC, strain not stated
Procedure: as §2, §3

[8] = test system: Burkholderia seminalis (CBC 040); settings: reference (1); cited from earlier work
[9] = Burkholderia cenocepacia (CBC 033)
[10] = Burkholderia cenocepacia (CBC 033), read-out: MIC
[11] = Burkholderia cenocepacia (CBC 036)
[12] = Burkholderia cenocepacia (CBC 036), read-out: MIC
[13] = Burkholderia multivorans (CBC 016)
[14] = Burkholderia multivorans (CBC 016), read-out: MIC

Row | SMILES | MBC [4] [µg/mL] | MIC [4] [µg/mL] | MBC [1, 9] [µg/mL] | MIC [1, 10] [µg/mL] | MBC [2, 11] [µg/mL] | MIC [2, 12] [µg/mL] | MBC [3, 13] [µg/mL] | MIC [3, 14] [µg/mL] | MBC [5] [µg/mL] | MIC ([5]; read-out: MIC) [µg/mL] | IC50 [6] [µg/mL] | melting point [°C] | other results
1 | NC[C@H]1O[C@H](O[C@H]2[C@H](O)[C@@H](O[C@H]3O[C@H](CO)[C@@H](O)[C@H](N)[C@H]3O)[C@H](N)C[C@@H]2N)[C@H](N)C[C@@H]1O [Tobramucin, tobramycin] | 1.95 (≈ 4.17 µM) | 1.95 (≈ 4.17 µM) | – | – | – | – | – | – | – | – | – | – | MIC ([1]; Burkholderia cenocepacia, Tobramucin, CLSI criteria, B. cenocepacia (CBC 033), read-out: MIC (R/I/S category)): > 16 µg/mL; MIC ([2]; Burkholderia cenocepacia, Tobramucin, CLSI criteria, B. cenocepacia (CBC 036), read-out: MIC (R/I/S category)): > 16 µg/mL; MIC ([3]; Burkholderia multivorans, Tobramucin, CLSI criteria, B. multivorans (CBC 016), read-out: MIC (R/I/S category)): > 16 µg/mL; MIC ([5]; Tobramucin, CLSI criteria, read-out: MIC (R/I/S category)): > 16 µg/mL
2 | O=C(NC(=Nc1c(F)cc(F)cc1Br)Nc1c(F)cc(F)cc1Br)C12CC3CC(CC(C3)C1)C2 [H-BDF, N—(N,N′-bis(2-bromo-4,6-difluorophenyl)carbamimidoyl)adamantane-1-carboxamide] | 3.9 (≈ 6.46 µM) | 0.48 (≈ 0.796 µM) | 15.6 (≈ 25.9 µM) | 3.9 (≈ 6.46 µM) | 7.81 (≈ 12.9 µM) | 1.95 (≈ 3.23 µM) | 7.81 (≈ 12.9 µM) | 1.95 (≈ 3.23 µM) | 3.9 (≈ 6.46 µM) | 0.97 (≈ 1.61 µM) | 15.2 (≈ 25.3 µM) | 174 | Selectivity Index (SI) [7]: > 10
3 | O=C(NC(=Nc1c(Br)cc(F)cc1Br)Nc1c(F)cc(F)cc1Br)C12CC3CC(CC(C3)C1)C2 [H-DBF, N—(N-(2-bromo-4,6-difluorophenyl)-N′-(2,6-dibromo-4-fluorophenyl)carbamimidoyl) adamantane-1-carboxamide] | > 133 | 33.2 (≈ 50 µM) | > 133 | 133 (≈ 200 µM) | 132 (≈ 199 µM) | 66.4 (≈ 100 µM) | > 132 | 66.4 (≈ 100 µM) | 31.2 (≈ 47.1 µM) | 15.6 (≈ 23.5 µM) | > 132 | 144 | –
4 | C[C@@H](O)[C@H]1C(=O)N2C(C(=O)O)=C(S[C@@H]3CN[C@H](C(=O)N(C)C)C3)[C@H](C)[C@H]12 [Meropenem, meropenem] | < 0.48 | < 0.48 | – | – | – | – | – | – | – | – | – | – | MIC ([1]; Burkholderia cenocepacia, Meropenem, CLSI criteria, B. cenocepacia (CBC 033), read-out: MIC (R/I/S category)): > 16 µg/mL; MIC ([2]; Burkholderia cenocepacia, Meropenem, CLSI criteria, B. cenocepacia (CBC 036), read-out: MIC (R/I/S category)): > 16 µg/mL; MIC ([3]; Burkholderia multivorans, Meropenem, CLSI criteria, B. multivorans (CBC 016), read-out: MIC (R/I/S category)): > 16 µg/mL; MIC ([5]; Meropenem, CLSI criteria, read-out: MIC (R/I/S category)): < 4 µg/mL; resistance of the strain to commercial antibiotics [8]: resistant
